According to the supplement of paper PMC11665569:

How the values were obtained:
Assay in all cases: relative viability (fraction of vehicle control); higher = more viable / less inhibited
H1373 = details: log10 concentration (uM): -2, treatment time: 5 days
Protocol: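 CCK-8 viability of H1373 cells with empty vector or constitutively active YAP S127A, treated with KRAS G12C inhibitors for 5 days, normalised to vehicle control.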

KYSE410 = details: treatment time: 5 days
Protocol: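 CCK-8 viability of KYSE410 cells transfected with control, YAP/TAZ or TEAD1-4 siRNAs and treated with KRAS G12C inhibitors for 5 days. Values are normalised to vehicle control.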

H358 = details: treatment time: 5 days
Protocol: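 CCK-8 viability of H358 cells with empty vector or constitutively active YAP S127A, treated with KRAS G12C inhibitors for 5 days. Absorbance at 450 nm normalised to vehicle control.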

C=CC(=O)N1CCN(c2ncnc3c(F)c(-c4c(O)cccc4F)c(Cl)cc23)CC1 [ARS1620]
Details	relative viability
H358, log10 concentration (uM): 0, ectopic expression: YAP S127A	0.842
H358, log10 concentration (uM): 0, ectopic expression: empty vector (YAP experiment)	0.6
H358, log10 concentration (uM): 0.39794, ectopic expression: YAP S127A	0.833
H358, log10 concentration (uM): 0.39794, ectopic expression: empty vector (YAP experiment)	0.389
H358, log10 concentration (uM): 0.69897, ectopic expression: YAP S127A	0.617
H358, log10 concentration (uM): 0.69897, ectopic expression: empty vector (YAP experiment)	0.306
H358, log10 concentration (uM): 1, ectopic expression: YAP S127A	0.558
H358, log10 concentration (uM): 1, ectopic expression: empty vector (YAP experiment)	0.217
H358, log10 concentration (uM): 1.301029996, ectopic expression: YAP S127A	0.383
H358, log10 concentration (uM): 1.301029996, ectopic expression: empty vector (YAP experiment)	0.128
H358, log10 concentration (uM): -0.30103, ectopic expression: YAP S127A	0.942
H358, log10 concentration (uM): -0.30103, ectopic expression: empty vector (YAP experiment)	0.711
H358, log10 concentration (uM): -0.60206, ectopic expression: YAP S127A	0.958
H358, log10 concentration (uM): -0.60206, ectopic expression: empty vector (YAP experiment)	0.806
H358, log10 concentration (uM): -1, ectopic expression: YAP S127A	0.808
H358, log10 concentration (uM): -1, ectopic expression: empty vector (YAP experiment)	0.883
H358, log10 concentration (uM): -2, ectopic expression: YAP S127A	0.792
H358, log10 concentration (uM): -2, ectopic expression: empty vector (YAP experiment)	0.75
H1373, ectopic expression: YAP S127A	1
H1373, ectopic expression: empty vector (YAP experiment)	0.989
KYSE410, log10 concentration (uM): 0, siRNA knockdown: TEAD1-4 siRNA 1	0.606
KYSE410, log10 concentration (uM): 0, siRNA knockdown: TEAD1-4 siRNA 2	0.433
KYSE410, log10 concentration (uM): 0, siRNA knockdown: YAP/TAZ siRNA 1	0.792
KYSE410, log10 concentration (uM): 0, siRNA knockdown: YAP/TAZ siRNA 2	0.59
KYSE410, log10 concentration (uM): 0, siRNA knockdown: negative control siRNA	0.869
KYSE410, log10 concentration (uM): 0.39794, siRNA knockdown: TEAD1-4 siRNA 1	0.338
KYSE410, log10 concentration (uM): 0.39794, siRNA knockdown: TEAD1-4 siRNA 2	0.315
KYSE410, log10 concentration (uM): 0.39794, siRNA knockdown: YAP/TAZ siRNA 1	0.438
KYSE410, log10 concentration (uM): 0.39794, siRNA knockdown: YAP/TAZ siRNA 2	0.428
KYSE410, log10 concentration (uM): 0.39794, siRNA knockdown: negative control siRNA	0.754
KYSE410, log10 concentration (uM): 0.69897, siRNA knockdown: TEAD1-4 siRNA 1	0.25
KYSE410, log10 concentration (uM): 0.69897, siRNA knockdown: TEAD1-4 siRNA 2	0.194
KYSE410, log10 concentration (uM): 0.69897, siRNA knockdown: YAP/TAZ siRNA 1	0.3
KYSE410, log10 concentration (uM): 0.69897, siRNA knockdown: YAP/TAZ siRNA 2	0.288
KYSE410, log10 concentration (uM): 0.69897, siRNA knockdown: negative control siRNA	0.556
KYSE410, log10 concentration (uM): 1, siRNA knockdown: TEAD1-4 siRNA 1	0.106
KYSE410, log10 concentration (uM): 1, siRNA knockdown: TEAD1-4 siRNA 2	0.0618
KYSE410, log10 concentration (uM): 1, siRNA knockdown: YAP/TAZ siRNA 1	0.123
KYSE410, log10 concentration (uM): 1, siRNA knockdown: YAP/TAZ siRNA 2	0.104
KYSE410, log10 concentration (uM): 1, siRNA knockdown: negative control siRNA	0.198
KYSE410, log10 concentration (uM): 1.301029996, siRNA knockdown: TEAD1-4 siRNA 1	0.0328
KYSE410, log10 concentration (uM): 1.301029996, siRNA knockdown: TEAD1-4 siRNA 2	0.0272
KYSE410, log10 concentration (uM): 1.301029996, siRNA knockdown: YAP/TAZ siRNA 1	0.0271
KYSE410, log10 concentration (uM): 1.301029996, siRNA knockdown: YAP/TAZ siRNA 2	0.0298
KYSE410, log10 concentration (uM): 1.301029996, siRNA knockdown: negative control siRNA	0.0407
KYSE410, log10 concentration (uM): -0.30103, siRNA knockdown: TEAD1-4 siRNA 1	0.826
KYSE410, log10 concentration (uM): -0.30103, siRNA knockdown: TEAD1-4 siRNA 2	0.769
KYSE410, log10 concentration (uM): -0.30103, siRNA knockdown: YAP/TAZ siRNA 1	0.897
KYSE410, log10 concentration (uM): -0.30103, siRNA knockdown: YAP/TAZ siRNA 2	0.7891
KYSE410, log10 concentration (uM): -0.30103, siRNA knockdown: negative control siRNA	0.938
KYSE410, log10 concentration (uM): -0.60206, siRNA knockdown: TEAD1-4 siRNA 1	0.943
KYSE410, log10 concentration (uM): -0.60206, siRNA knockdown: TEAD1-4 siRNA 2	0.725
KYSE410, log10 concentration (uM): -0.60206, siRNA knockdown: YAP/TAZ siRNA 1	0.964
KYSE410, log10 concentration (uM): -0.60206, siRNA knockdown: YAP/TAZ siRNA 2	0.86
KYSE410, log10 concentration (uM): -0.60206, siRNA knockdown: negative control siRNA	0.916
KYSE410, log10 concentration (uM): -1, siRNA knockdown: TEAD1-4 siRNA 1	0.909
KYSE410, log10 concentration (uM): -1, siRNA knockdown: TEAD1-4 siRNA 2	0.779
KYSE410, log10 concentration (uM): -1, siRNA knockdown: YAP/TAZ siRNA 1	0.959
KYSE410, log10 concentration (uM): -1, siRNA knockdown: YAP/TAZ siRNA 2	0.883
KYSE410, log10 concentration (uM): -1, siRNA knockdown: negative control siRNA	0.976
KYSE410, log10 concentration (uM): -2, siRNA knockdown: TEAD1-4 siRNA 1	0.981
KYSE410, log10 concentration (uM): -2, siRNA knockdown: TEAD1-4 siRNA 2	0.876
KYSE410, log10 concentration (uM): -2, siRNA knockdown: YAP/TAZ siRNA 1	0.988
KYSE410, log10 concentration (uM): -2, siRNA knockdown: YAP/TAZ siRNA 2	0.996
KYSE410, log10 concentration (uM): -2, siRNA knockdown: negative control siRNA	0.9803
